Test results published in US20260062422A1 (Halda Therapeutics OpCo, Inc., priority 2022, published 2026).

What was measured:
[1] = Cellular growth inhibition, T-Rex 293 SC cells with doxycycline (progesterone receptor isoform B induced), Example 45; format: cell-based; settings: progesterone receptor isoform B induced with 10 ng/mL doxycycline, 72 hours, CellTiter-Glo 2.0, Table 11
[2] = tested on: T-Rex 293 cell line SC cells lacking increased expression of progesterone receptor isoform B protein; test: Cellular growth inhibition, T-Rex 293 SC cells without doxycycline, Example 45; format: cell-based; settings: T-Rex 293 SC cells not exposed to doxycycline, 72 hours treatment, CellTiter-Glo 2.0
T47D cells = test: Cellular growth inhibition assay for T47D cells, CellTiter-Glo; format: cell-based, human; settings: 72 hours treatment, CellTiter-Glo 2.0 cell viability
Summary of the method: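 Luminescence from CellTiter-Glo 2.0 after 72 h of compound exposure gives the viability signal. Cells grew in insulin-supplemented (0.2 units/mL) DMEM with 10% FBS and were treated one day after seeding at 0.5% DMSO. GI50 values come from four-parameter nonlinear regression.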

VCaP cells = test: Cellular growth inhibition assay for VCaP cells, CellTiter-Glo; format: cell-based, human; settings: 72 hours treatment, CellTiter-Glo 2.0
Summary of the method: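 GI50 values come from four-parameter curve fits of luminescence data normalized to a zero baseline. Compound, in medium with 0.5% DMSO, was added one day after plating and left for 72 h before CellTiter-Glo 2.0 addition.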

Row | GI50 (T47D cells; Homo sapiens, T47D, 72 h) [nM] | GI50 (VCaP cells; Homo sapiens, VCaP, 72 h) [nM] | GI50 (T47D cells) [nM] | GI50 (VCaP cells) [nM] | SMILES | GI50 [1] [nM] | GI50 [2] [nM]
1 | < 500 | < 500 | – | – | Cc1sc2c(c1C)C(c1ccc(N3CC(N4CCN(c5ncc(C(=O)N[C@H]6C(C)(C)[C@H](Oc7ccc(C#N)c(Cl)c7)C6(C)C)cn5)CC4)C3)cc1)=NC(Cc1ncco1)c1nnc(C)n1-2 (some centres unmarked) [Compound I-208] | < 500 | < 500
2 | – | – | < 500 | < 500 | Cc1sc2c(c1C)C(c1ccc(CC3CC4(CCN(c5ccc(C(=O)N[C@H]6C(C)(C)[C@H](Oc7ccc(C#N)c(Cl)c7)C6(C)C)cn5)CC4)C3)cc1)=N[C@@H](Cc1ncco1)c1nnc(C)n1-2 [Compound I-143] | < 500 | < 500
